In patent US20260258051A1, “Camptothecin Compound, Preparation Method Therefor and Use Thereof” (SICHUAN KELUN-BIOTECH BIOPHARMACEUTICAL CO., LTD., priority 2022, published 2026):
Like-named read-outs stand apart in the source and are kept apart here.

What was measured:
[1] = tested on: NCI-N87 cells; assay: Inhibitory effect on NCI-N87 cell proliferation; assay type: cell-based; conditions: Homo sapiens, read-out: IC50 (nM), inhibitory activity on NCI-N87 cell proliferation
Procedure: (1) Cell plating: First, tumor cells NCI-N87 were cultured with corresponding culture medium, the cells were digested with trypsin and centrifuged, then the cells were resuspended and counted, and the cells were adjusted to an appropriate concentration for plating.
(§1) Co-incubation of the compounds of the present invention and tumor cells: 90 μL of cell suspension was added to 96-well plates respectively. After cell adherence, 10 μL of bioactive molecules (compounds of the present invention) diluted with culture medium were added into the wells of the above plates, and incubated for 72 h.
(§2) In vitro cell viability detection: After the incubation, 50 μL of Cell Counting-Lite™ 2.0 reagent (Vazyme) was added to each well, shaken and mixed well in the dark, and reacted for 10 minutes before testing. Microplate reader (manufacturer: BMG, Model: PHERA Star-FS) was used for reading. The culture wells without cells were used as the background RLU, and the culture wells with cells but no compound were used as the cell control RLU. Cell inhibition rate=1−(sample RLU−background RLU)/(cell control RLU−background RLU)×100%. The half-inhibition concentration (IC50) of compound was calculated by fitting the curve according to the four-parameter model.

[2] = tested on: HT29 cells; assay: Inhibitory effect on HT29 cell proliferation; assay type: cell-based; conditions: Homo sapiens, HT-29; HT29, 72 h incubation, Cell Counting-Lite 2.0
Procedure: (1) Cell plating: First, tumor cells HT29 were cultured with corresponding culture medium, the cells were digested with trypsin and centrifuged, then the cells were resuspended and counted, and the cells were adjusted to an appropriate concentration for plating.
as §1, §2

[3] = tested on: HCC1806 cells; assay: Inhibitory effect on HCC1806 cell proliferation; assay type: cell-based; conditions: Homo sapiens; HCC1806, 72 h incubation, Cell Counting-Lite 2.0
Procedure: (1) Cell plating: First, tumor cells HCC1806 were cultured with corresponding culture medium, the cells were digested with trypsin and centrifuged, then the cells were resuspended and counted, and the cells were adjusted to an appropriate concentration for plating.
as §1, §2

[4] = tested on: MDA-MB-453 cells; assay: Inhibitory effect on MDA-MB-453 cell proliferation; assay type: cell-based; conditions: Homo sapiens; MDA-MB-453, 72 h incubation, Cell Counting-Lite 2.0
Procedure: (1) Cell plating: First, tumor cells MDA-MB-453 were cultured with corresponding culture medium, the cells were digested with trypsin and centrifuged, then the cells were resuspended and counted, and the cells were adjusted to an appropriate concentration for plating.
as §1, §2

[5] = tested on: NCI-H358 cells; assay: Inhibitory effect on NCI-H358 cell proliferation; assay type: cell-based; conditions: Homo sapiens; NCI-H358, 72 h incubation, Cell Counting-Lite 2.0
Procedure: (1) Cell plating: First, tumor cells NCI-H358 were cultured with corresponding culture medium, the cells were digested with trypsin and centrifuged, then the cells were resuspended and counted, and the cells were adjusted to an appropriate concentration for plating.
as §1, §2

[6] = tested on: MDA-MB-231 cells; assay: Inhibitory effect on MDA-MB-231 cell proliferation; assay type: cell-based; conditions: Homo sapiens; MDA-MB-231, 72 h incubation, Cell Counting-Lite 2.0
Procedure: (1) Cell plating: First, tumor cells MDA-MB-231 were cultured with corresponding culture medium, the cells were digested with trypsin and centrifuged, then the cells were resuspended and counted, and the cells were adjusted to an appropriate concentration for plating.
as §1, §2

[7] = tested on: Jeko-1 cells; assay: Inhibitory effect on Jeko-1 cell proliferation; assay type: cell-based; conditions: Homo sapiens; Jeko-1, 72 h incubation, Cell Counting-Lite 2.0
Procedure: (1) Cell plating: First, tumor cells Jeko-1 were cultured with corresponding culture medium, the cells were resuspended and counted, and finally the cells were adjusted to an appropriate concentration for plating.
as §1, §2

[8] = Permeability test in MDCK cell model; assay type: in vitro ADME; conditions: dog; for efflux ratio at 120 min, 2 μM: pH 7.4, 2.00 μM, Papp(B→A)/Papp(A→B), absence of P-gp inhibitor, read-out: Efflux ratio (ERa)
Procedure: (§3) The MDCK cell model was used to evaluate the permeability of the compounds, the LC-MS/MS method was used to determine the concentration of the substance to be tested, and the apparent permeability coefficient (Papp) and efflux ratio were calculated [Efflux ratio=Papp(B→A)/Papp(A→B)].
(§4) Complete culture medium: 10% fetal bovine serum and 1% penicillin/streptomycin were added to MEM culture medium.
(§5) Digestive solution: 0.05% trypsin-EDTA.
(§6) HBSS buffer: HBSS containing Ca^2+, Mg^2+.
(§7) Permeating solution: HBSS containing 10 mM Hepes, 4% BSA, pH 7.4.
(§8) Compound stock solution: a certain amount of the compound to be tested was weighed and formulated with DMSO to prepare a 10 mM stock solution.
(§9) MDCK cells (26th generation) in the logarithmic growth phase were digested and dispersed evenly with 0.05% trypsin-EDTA, and then inoculated into the Transwell chamber at 3*10^5 cells/cm^2, with 200 μL on the A side and 1000 μL on the B side. After inoculation, the medium was changed once every day and the culturing was carried out for 3 to 4 days.
(§10) The cell culture medium was discarded by pipetting, then washing was carried out three times with the permeating solution. 200 μL of permeating solution was added to A side and 1000 μL of permeating solution was added to B side. A voltage resistance meter was used to measure the cell transmembrane resistance (TEER). After the TEER value of the cells was measured, the permeating solution on both sides was discarded by pipetting, and the solution was added. After 120 minutes, 150 μL of samples were taken from A side and B side, respectively, and frozen at −80° C. before testing. Then, 10 μg/ml Fluorescent Yellow was added to A side. After incubation for 30 minutes, 100 μL of solution at B side was pipetted and added into a 96-well white plate. The fluorescence value was measured at the wavelengths of Ex=485 nm and Em=530 nm using a microplate reader, and the permeance was calculated (which was less than 1%).
(§11) 80 μL of the compound to be tested was taken, added to 320 μL of acetonitrile solution containing internal standard (30 ng/mL Tolbutamide), vortexed, and centrifuged for 10 min (4000 rpm, 4° C.), and the supernatant was taken for LC-MS/MS analysis.
(§12) Excel 2013 was used to calculate Papp values and Papp ratio of B side→A side to A side→B side, and the recovery rates of each Control Compound and the compound to be tested were calculated.
(§13) Apparent permeability coefficient (Papp) of compound was calculated according to the following formula:
(§14) C0 was the initial concentration (μM) of the drug to be tested at the donor, (dCr/dt)×Vr was the rate (μM/s) at which the drug to be tested appeared at the receiver, Vr was the solution volume (mL) at the receiver, and A was the surface area (cm^2) of polycarbonate membrane.
(§15) Evaluation criteria: Low permeability: Papp≤0.5 (×10^−6 cm/s) • Medium permeability: 0.5<Papp<2.5 (×10^−6 cm/s) • High permeability: Papp≥2.5 (×10^−6 cm/s)
(§16) Efflux ratio (ER) was calculated according to Papp:
(§17) [formula] • wherein, Papp(B→A) was the apparent permeability coefficient of the drug to be tested from the BL (baso-lateral) end to the AP (apical) end, and Papp (A→B) was the apparent permeability coefficient of the drug to be tested from the AP end to the BL end.
(§18) • Probably being an efflux transporter substrate (Probably): ERa≥2 and ERa/ERi>2 • Likely being an efflux transporter substrate (Likely): ERa≥2 • Unlikely or impossibly being an efflux transporter substrate (Poor or non): ERa<2 • wherein, ERi and ERa were the efflux ratios of the compound to be tested in the presence and absence of P-gp inhibitor, respectively.

[9] = tested on: MDCK cells; assay: Permeability test in MDCK cell model; assay type: in vitro ADME
Procedure: as §3, §4, §5, §6, §7, §8, §9, §10, §11, §12, §13, §14, §15, §16, §17, §18

[10] = NCI-N87, 72 h incubation, Cell Counting-Lite 2.0
[11] = pH 7.4, concentration 2.00 μM, 120 minutes, A to B, read-out: Papp A to B
[12] = pH 7.4, concentration 2.00 μM, 120 minutes, B to A, read-out: Papp B to A

Compound	IC50 ([1]; NCI-N87, 72 h)	IC50 [2]	IC50 [3]	IC50 [4]	IC50 [5]	IC50 [6]	IC50 [7]	IC50 [1, 10]	Papp A→B at 120 min, 2 μM ([8]; pH 7.4)	Papp B→A at 120 min, 2 μM ([8]; pH 7.4)	efflux ratio at 120 min, 2 μM [8]	Permeability class according to the Papp(A→B) results [9]	Efflux transporter substrate evaluation from efflux ratio ([9]; 2.00 μM)	Papp A→B at 120 min, 2 μM [8, 11]	Papp B→A at 120 min, 2 μM [8, 12]	Permeability class according to the Papp(A→B) results ([9]; 2.00 μM)
CC[C@@]1(O)C(=O)OCc2c1cc1n(c2=O)Cc2c-1nc1cc(F)c(C)c3c1c2[C@@H](NC(N)=O)CC3 [Compound 7-2, 1-((1S,9S)-9-ethyl-5-fluoro-9-hydroxy-4-methyl-10,13-dioxy-2,3,9,10,13,15-hexahydro-1H,12H-benzo[de]pyrano[3′,4′:6,7]indolizino[1,2-b]quinolin-1-yl)urea]	80.8 nM	22.8 nM	18.6 nM	203 nM	287 nM	30.6 nM	2.17 nM	–	–	–	–	–	–	–	–	–
C=CC(O)C(=O)NCc1c2c(nc3cc(F)c(Cl)cc13)-c1cc3c(c(=O)n1C2)COC(=O)[C@]3(O)CC (stereo partly drawn) [Compound 2-22, N—(((S)-9-chloro-4-ethyl-8-fluoro-4-hydroxy-3,14-dioxo-3,4, 12,14-tetrahydro-1H-pyrano[3′,4′:6,7]indolizino[1,2-b]quinolin-11-yl)methyl)-2-hydroxy-3-enamine]	–	10.2 nM	6.09 nM	–	–	–	1.11 nM	7.27 nM	0.71 ×10⁻⁶ cm/s	1.59 ×10⁻⁶ cm/s	2.24	medium-permeability	could be efflux transporter substrates	–	–	–
CC[C@@]1(O)C(=O)OCc2c1cc1n(c2=O)Cc2c-1nc1cc(F)c(Cl)cc1c2CN [Compound 1-1, (S)-11-(aminomethyl)-9-chloro-4-ethyl-8-fluoro-4-hydroxy-1,12-dihydro-14H-pyrano[3′,4′:6,7]indolizino[1,2-b]quinolin-3,14(4H)-dione]	8.59 nM	1.07 nM	1.23 nM	291 nM	25.7 nM	3.55 nM	–	–	–	–	1.41	–	not efflux transporter substrates or were weak efflux transporter substrates	2.59 ×10⁻⁶ cm/s	3.65 ×10⁻⁶ cm/s	high-permeability
CC[C@@]1(O)C(=O)OCc2c1cc1n(c2=O)Cc2c-1nc1cc(F)c(C)cc1c2CN [Control Compound 1, reference compound]	–	–	–	–	–	–	–	–	–	–	2.06	–	could be efflux transporter substrates	1.31 ×10⁻⁶ cm/s	2.71 ×10⁻⁶ cm/s	medium-permeability
CC[C@@]1(O)C(=O)OCc2c1cc1n(c2=O)Cc2c-1nc1cc(F)c(C)cc1c2CNC(=O)CO [Control Compound 2, reference compound]	–	–	–	–	–	–	–	–	–	–	28	–	could be efflux transporter substrates	0.01 ×10⁻⁶ cm/s	0.4 ×10⁻⁶ cm/s	low-permeability
CC[C@@]1(O)C(=O)OCc2c1cc1n(c2=O)Cc2c-1nc1cc(F)c(C)c3c1c2[C@@H](NS(N)(=O)=O)CC3 [Compound 7-1, (1S,9S)-1-sulfamoylamido-9-ethyl-5-fluoro-9-hydroxy-4-methyl-1,2,3,9,12,15-hexahydro-10H,13H-benzo[de]pyranol[3′,4′:6,7]indolizino[1,2-b]quinolin-10,13-dione]	31.3 nM	10.1 nM	3.67 nM	50.2 nM	268 nM	31 nM	4.07 nM	–	–	–	–	–	–	–	–	–
CC[C@@]1(O)C(=O)OCc2c1cc1n(c2=O)Cc2c-1nc1cc(F)c(Cl)cc1c2CNC(=O)C(O)C(F)(F)F (stereo partly drawn) [Compound 2-19, N—(((S)-9-chloro-4-ethyl-8-fluoro-4-hydroxy-3,14-dioxo-3,4, 12,14-tetrahydro-1H-pyrano[3′,4′:6,7]indolizino[1,2-b]quinolin-11-yl)methyl)-3,3,3-trifluoro-2-hydroxypropionamide]	–	2.93 nM	0.78 nM	–	12.7 nM	–	1.09 nM	5.69 nM	0.5 ×10⁻⁶ cm/s	0.73 ×10⁻⁶ cm/s	1.48	low-permeability	not efflux transporter substrates or were weak efflux transporter substrates	–	–	–
CC[C@@]1(O)C(=O)OCc2c1cc1n(c2=O)Cc2c-1nc1cc(F)c(C)c3c1c2[C@@H](NC(=O)CO)CC3 [Control Compound 3, reference compound]	–	–	–	–	–	–	–	–	–	–	15.2	–	could be efflux transporter substrates	0.31 ×10⁻⁶ cm/s	4.65 ×10⁻⁶ cm/s	low-permeability
CC[C@@]1(O)C(=O)OCc2c1cc1n(c2=O)Cc2c-1nc1cc(F)c(Cl)cc1c2CNC(=O)C(O)C1CC1 (some centres unmarked) [Compound 2-4]	5.72 nM	5.99 nM	1.08 nM	95.6 nM	53.4 nM	–	0.34 nM	–	–	–	–	–	–	–	–	–
